The source of these data is patent publication US20100239523A1 (priority 2007, published 2010).

One test addresses T1, human TLR4 (Homo sapiens, UniProt O00206).
T1 construct: host or cells: HEK 293
Type of test: cell-based.

Test [1] has as its system morphine analgesia in rats. Description: Potentiation of intrathecal morphine analgesia, Hargreaves test. The conditions noted are these: about 20 μg co-administered with morphine intrathecally, FIG. 6B. The test is classed as in vivo, rat.

T1 sequence (O00206 24-839): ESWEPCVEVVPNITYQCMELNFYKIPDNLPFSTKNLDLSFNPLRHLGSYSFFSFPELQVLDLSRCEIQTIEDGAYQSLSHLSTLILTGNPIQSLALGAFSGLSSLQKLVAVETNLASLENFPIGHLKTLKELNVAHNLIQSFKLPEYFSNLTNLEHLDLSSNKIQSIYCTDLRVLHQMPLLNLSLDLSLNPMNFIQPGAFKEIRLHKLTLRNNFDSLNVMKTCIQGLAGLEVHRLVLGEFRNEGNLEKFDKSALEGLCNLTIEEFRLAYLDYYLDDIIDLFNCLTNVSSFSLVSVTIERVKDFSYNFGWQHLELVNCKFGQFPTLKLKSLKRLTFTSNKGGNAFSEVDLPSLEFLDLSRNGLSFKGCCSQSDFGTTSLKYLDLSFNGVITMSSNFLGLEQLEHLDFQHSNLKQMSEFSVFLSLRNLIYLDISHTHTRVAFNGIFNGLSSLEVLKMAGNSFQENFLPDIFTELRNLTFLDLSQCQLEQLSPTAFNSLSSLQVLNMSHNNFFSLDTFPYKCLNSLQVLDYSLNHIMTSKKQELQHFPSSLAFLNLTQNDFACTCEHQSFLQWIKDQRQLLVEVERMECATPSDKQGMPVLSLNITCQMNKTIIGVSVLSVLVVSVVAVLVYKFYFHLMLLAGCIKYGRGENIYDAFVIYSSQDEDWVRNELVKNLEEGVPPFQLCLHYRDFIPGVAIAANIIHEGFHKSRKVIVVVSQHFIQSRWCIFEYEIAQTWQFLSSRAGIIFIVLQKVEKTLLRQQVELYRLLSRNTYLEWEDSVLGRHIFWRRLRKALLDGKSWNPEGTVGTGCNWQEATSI
T1 sequence (Q9Y6Y9 17-160 partner limits assumed): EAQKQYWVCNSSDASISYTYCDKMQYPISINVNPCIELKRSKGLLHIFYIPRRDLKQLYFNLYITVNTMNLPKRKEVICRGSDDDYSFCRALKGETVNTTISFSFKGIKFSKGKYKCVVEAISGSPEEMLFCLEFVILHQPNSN

As for `CCC(=O)C(CC(C)N(C)C)(c1ccccc1)c1ccccc1` (centres unmarked) [methadone], at human TLR4, the TLR4 agonism result was “TLR4 agonists”.
Still for that read-out and setting: with `CN1CC[C@]23c4c5ccc(O)c4O[C@H]2[C@@H](O)C=C[C@H]3[C@H]1C5` [morphine] the entry was “TLR4 agonists”; with `COc1ccc2c3c1O[C@H]1C(=O)CC[C@@]4(O)[C@@H](C2)N(C)CC[C@]314` [oxycodone], “TLR4 agonists”; with `CCOC(=O)C1(c2ccccc2)CCN(C)CC1` [pethadine/meperidine], “TLR4 agonists”.
For `O=c1c(O)c(-c2ccc(O)c(O)c2)oc2cc(O)cc(O)c12` [quercetin], in test [1], the “potentiation of morphine analgesia” value is recorded as “significant potentiation”.
